In paper PMC6278385, “Preclinical Pharmacokinetics of C118P, a Novel Prodrug of Microtubules Inhibitor and Its Metabolite C118 in Mice, Rats, and Dogs” (Molecules, 2018):

Tests used:
[1] = Metabolic stability in liver microsomes; assay type: in vitro ADME, dog
Experimental: The in vitro metabolic stability of C118P and C118 were estimated in mice, rat, dog, monkey, and human liver microsomes (Research Institute for Liver Diseases Co. Ltd (Shanghai, China)). The incubation mixture contains C118P or C118, NADP (1.0 mM), G-6-P (10 mM), PDH (2 units/mL), MgCl2 (10 mM), and liver microsomes (mice, rats, dogs, monkeys, or humans, 1.0 mg protein/mL) in phosphate buffer. A total of 200 μL of the mixture was removed and quenched with 600 μL acetonitrile in an ice bath at 0, 15, 30, 60, 120, and 240 min after the addition of NADPH.
CLint, in vitro (the in vitro intrinsic clearance, Equation (1)) was calculated from the t1/2 of C118 disappearance, where Cprotein is the protein concentration during the incubation, and t1/2 was determined by the slope (k) of the log-linear regression analysis of the concentration versus time profiles; thus, t1/2 = ln2/k. […] The in vivo hepatic clearance (CLH, Equation (3)) was then calculated by using CLint and hepatic blood flow, Q ([…] mL·min^−1·kg^−1 in rats, dogs, monkey, and humans, respectively), in the well-stirred liver model disregarding all binding. The hepatic extraction ratio was calculated as CLH divided by Q. CLint, in vitro = (0.693/t1/2) × (1/Cprotein)(1) CLint = CLint, in vitro × (mg protein/g liver weight) × (gliver weight/kg body weight)(2) CLH = (Q × CLint)/(Q + CLint)(3)

[2] = Excretion in rats (bile, urine, feces); assay type: in vivo; settings: i.v. C118P 20 mg/kg
Experimental: Twelve rats (weight 220–260 g) with half males and half females were anesthetized with diethyl ether after fasted overnight. A median laparotomy was performed and the bile duct was cannulated with a catheter. After intravenous administration (20 mg/kg) of C118P solution, bile samples were collected at 1, 2, 4, 6, 10 and 24 h in EDTA-coated tubes. The accurate volume of bile samples were measured by weight loss method. A volume of 50 μL of bile was prepared by protein precipitation and determined by the method described above. The total cumulative molar excretion percentage of C118P and C118 in bile of ten rats was calculated according to the total molar amount of C118P and C118 and the dose.
Six rats (weight 200–230 g) with half males and half females were fasted overnight. After intravenous administration (20 mg/kg), urine and feces samples were collected at 12, 24, 36, 48, 60 and 72 h. The feces were collected in 200 mL of EDTA solution (100 mg/mL) and grinded into a suspension. The accurately volume amount of urine and feces samples were measured by weight loss method. A volume of 50 μL of urine or feces suspension was prepared by protein precipitation and determined by the method described above. The cumulative molar excretion percentage of C118P and C118 in urine or feces was calculated according to the concentrations of C118P and C118, the volume of each time period.

CLint, in vitro ([1]; dog liver microsomes) [μL·min^−1·mg^−1 Protein]	half-life ([1]; dog liver microsomes, 1.0 mg protein/mL, C118 disappearance) [h]	CLint ([1]; dog, scaled from CLint, in vitro) [mL/min/kg]	Extrapolated CLH ([1]; dog, well-stirred liver model) [mL/min/kg]	SMILES	stability in liver microsomes ([1]; dog microsomes (Figure S1))	sulfuric acid conjugation in urine [2]
–	–	–	–	COc1cc(OC)cc(-c2nc[nH]c2-c2ccc(OC)c(OP(=O)([O-])[O-])c2)c1.[Na+].[Na+] [C118P]	not stable	no sulfuric acid conjugation was found
9.9	1.17	18.9	12.8	COc1cc(OC)cc(-c2nc[nH]c2-c2ccc(OC)c(O)c2)c1 [C118]	–	–
